Test results from US7935687B2, “Methods for treating spinal muscular atrophy using tetracycline compounds” (Paratek Pharmaceuticals, Inc., priority 2007, dated 2011).

What was measured:
SMN2 mRNA = test: In vitro cell-free splicing assay for inclusion of exon 7; assay type: biochemical; conditions: HeLa cell nuclear extract, 30° C., 3 hours
Procedure, shortened: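 ^32P-labelled SMN2 minigene pre-mRNA (exon 6 to part of exon 8; 10 fmol) spliced 3 h at 30 °C in 30% HeLa nuclear extract with 0.5 mM ATP, 1.56 mM MgCl2, pH 7.4, plus compound or buffer. Exon 7 inclusion quantified by denaturing PAGE and phosphorimaging. Emax is maximal % inclusion and Cmax the lowest concentration (μM) reaching it, reported as binned grades.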

E. coli (EC D1-209) = test: Antibacterial MIC, gram negative; assay type: cell-based; conditions: CLSI methodology, 35° C., 18-24 hours
S. aureus (SA RN450) = test: Antibacterial MIC, gram positive; assay type: cell-based; conditions: CLSI methodology, 35° C., 18-24 hours

Row | Structure (SMILES) | Cmax (lowest compound concentration at which the maximum exon 7 inclusion occurs) (SMN2 mRNA) | Emax (maximum percentage exon 7 inclusion observed) (SMN2 mRNA) | MIC Gram Negative (EC D1-209) (E. coli (EC D1-209)) | MIC Gram Positive (SA RN450) (S. aureus (SA RN450)) | MIC (E. coli (EC D1-209); Escherichia coli) [µg/mL] | MIC (S. aureus (SA RN450); Staphylococcus aureus) [µg/mL]
1 | CN(C)C1C(O)=C(C(N)=O)C(=O)C2(O)C(O)=C3C(=O)c4c(O)ccc(C(=O)Cc5cncn5C)c4CC3CC12 (stereo not shown) [CG] | * (concentrations of greater than 40 μM) | ** (values of 10-20%) | * (weak antibacterial activity (greater than about 8 μg/mL)) | *** (Good antibacterial activity (e.g., less than about 4 μg/mL)) | – | –
2 | COCCNC(=O)c1cccc(-c2ccc(O)c3c2CC2CC4C(N(C)C)C(O)=C(C(N)=O)C(=O)C4(O)C(O)=C2C3=O)c1 (stereo not shown) [L] | * (concentrations of greater than 40 μM) | ** (values of 10-20%) | * (weak antibacterial activity (greater than about 8 μg/mL)) | *** (Good antibacterial activity (e.g., less than about 4 μg/mL)) | – | –
3 | CCN(CC)CCNC(=O)c1cccc(-c2ccc(O)c3c2CC2CC4C(N(C)C)C(O)=C(C(N)=O)C(=O)C4(O)C(O)=C2C3=O)c1 (stereo not shown) [O] | ** (concentrations between 40 and 10 μM) | * (percentage inclusion values of less than 10%) | * (weak antibacterial activity (greater than about 8 μg/mL)) | ** (modest antibacterial activity (between about 4 and 8 μg/mL)) | – | –
4 | CON=Cc1ccc(-c2ccc(O)c3c2CC2CC4C(N(C)C)C(O)=C(C(N)=O)C(=O)C4(O)C(O)=C2C3=O)o1 (stereo not shown) [AZ] | *** (concentrations of less than 10 μM) | ** (values of 10-20%) | * (weak antibacterial activity (greater than about 8 μg/mL)) | *** (Good antibacterial activity (e.g., less than about 4 μg/mL)) | – | –
5 | CCOC(=O)CCNC(=O)c1cccc(-c2ccc(O)c3c2C[C@H]2C[C@H]4[C@H](N(C)C)C(O)=C(C(N)=O)C(=O)[C@@]4(O)C(O)=C2C3=O)c1 [Compound I, 3-[3-((6aS,10S,10aS,11aR)-8-Carbamoyl-10-dimethylamino-4,6,6a,9-tetrahydroxy-5,7-dioxo-5,6a,7,10,10a,11,11a,12-octahydro-naphthacen-1-yl)-benzoylamino]-propionic Acid Ethyl Ester] | * (concentrations of greater than 40 μM) | *** (values greater than 20%) | – | – | > 8 | < 4
6 | CN(C)C1C(O)=C(C(N)=O)C(=O)C2(O)C(O)=C3C(=O)c4c(O)ccc(C(=O)CNCc5ccco5)c4CC3CC12 (stereo not shown) [CC] | *** (concentrations of less than 10 μM) | ** (values of 10-20%) | * (weak antibacterial activity (greater than about 8 μg/mL)) | ** (modest antibacterial activity (between about 4 and 8 μg/mL)) | – | –
7 | CC(=O)NCCC(=O)c1ccc(O)c2c1CC1CC3C(N(C)C)C(O)=C(C(N)=O)C(=O)C3(O)C(O)=C1C2=O (stereo not shown) [CI] | * (concentrations of greater than 40 μM) | ** (values of 10-20%) | * (weak antibacterial activity (greater than about 8 μg/mL)) | *** (Good antibacterial activity (e.g., less than about 4 μg/mL)) | – | –
